From US20220000157A1, “MOUTH-COATING FEEL ENHANCER” (AJINOMOTO CO., INC., priority 2019, published 2022)

Tested on: panel of 3 experts
Test: Sensory evaluation of strength of mouth-coating feel of mayonnaise, single compounds in ethanol (Experimental Example 14)
Format: in vivo
Conditions: for mouth-coating feel (in words): Table 20
Description: as a Positive Control, General Commercially Available mayonnaise (manufactured by Ajinomoto Co., Inc., trade name “Pure Select (registered trade mark) mayonnaise”, oil and fat content: 73%) added with ethanol (manufactured by Japan Alcohol Corporation) (0.001 wt %) was used.
As a negative control, commercially available mayonnaise (manufactured by Ajinomoto Co., Inc., trade name “Pure Select (registered trade mark) KOKUUMA (registered trade mark) 65% Calorie Cut”, oil and fat content: 23%) with a smaller oil and fat content as compared with positive control mayonnaise and added with ethanol (manufactured by Japan Alcohol Corporation) (0.001 wt %) was used.
Given amounts of β-caryophyllene, β-caryophyllene oxide, clovanediol, (1R,3Z,5R,9S)-4,11,11-trimethyl-8-methylenebicyclo[7.2.0]undec-3-en-5-ol, (1R,4R,5R,9S)-4,11,11-trimethyl-8-methylenebicyclo[7.2.0]undecane-4,5-diol, clovanediol-3-monoacetate, clovanediol diacetate, clovanediol-3-monoisovalerate, α-pinene, α-pinene oxide, limonene, limonene oxide, α-terpineol (clovanediol, (1R,3Z,5R,9S)-4,11,11-trimethyl-8-methylenebicyclo[7.2.0]undec-3-en-5-ol, (1R,4R,5R,9S)-4,11,11-trimethyl-8-methylenebicyclo[7.2.0]undecane-4,5-diol, clovanediol-3-monoacetate, clovanediol diacetate and clovanediol-3-monoisovalerate used were those obtained in the above-mentioned Synthetic Examples and others used were manufactured by Sigma-Aldrich) were dissolved in ethanol (manufactured by Japan Alcohol Corporation), the ethanol (0.001 wt %) was added to the commercially available mayonnaise used for preparation of the above-mentioned negative control, and the obtained mayonnaise was used as an evaluation sample. The amounts of β-caryophyllene, β-caryophyllene oxide, clovanediol, (1R,3Z,5R,9S)-4,11,11-trimethyl-8-methylenebicyclo[7.2.0]undec-3-en-5-ol, (1R,4R,5R,9S)-4,11,11-trimethyl-8-methylenebicyclo[7.2.0]undecane-4,5-diol, clovanediol-3-monoacetate, clovanediol diacetate, clovanediol-3-monoisovalerate, α-pinene, α-pinene oxide, limonene, limonene oxide, α-terpineol dissolved in ethanol were each adjusted to fall within the range of 0.01-1 ppm with respect to mayonnaise, as shown in the following Table 20.
For the evaluation of the strength of the mouth-coating feel, a panel of 3 experts ate each mayonnaise of positive control, negative control and evaluation sample, and graded the evaluation samples in 0.1 point increments in the range of 0.0 to 5.0 points, with the positive control being 5.0 points and the negative control being 0.0 point.

[1] = concentration 1 ppm with respect to mayonnaise
[2] = concentration 0.01 ppm with respect to mayonnaise
[3] = concentration 0.1 ppm with respect to mayonnaise

SMILES | mouth-coating feel (in words) | strength of mouth-coating feel [1] [points] | strength of mouth-coating feel [2] [points] | strength of mouth-coating feel [3] [points]
C=C1CC[C@@H](O)/C(C)=C\C[C@@H]2[C@@H]1CC2(C)C [(1R,3Z,5R,9S)-4,11,11-trimethyl-8-methylenebicyclo[7.2.0]undec-3-en-5-ol] | enhanced | 3.0 |  | 
C=C1CC[C@@H](O)[C@](C)(O)CC[C@@H]2[C@@H]1CC2(C)C [(1R,4R,5R,9S)-4,11,11-trimethyl-8-methylenebicyclo[7.2.0]undecane-4,5-diol] | enhanced | 3.3 |  | 
CC(=O)O[C@H]1CC(C)(C)[C@@H]2CC[C@]3(C)C[C@]12CC[C@H]3OC(C)=O [clovanediol diacetate] | enhanced | 3.2 |  | 
CC(=O)O[C@H]1CC(C)(C)[C@@H]2CC[C@]3(C)C[C@]12CC[C@H]3O [clovanediol-3-monoacetate] | enhanced | 3.0 |  | 
CC(C)CC(=O)O[C@H]1CC(C)(C)[C@@H]2CC[C@]3(C)C[C@]12CC[C@H]3O [clovanediol-3-monoisovalerate] | enhanced | 3.2 |  | 
CC1(C)C[C@H](O)[C@]23CC[C@@H](O)[C@](C)(CC[C@@H]12)C3 [clovanediol] | enhanced | 3.1 |  | 
C=C(C)C1CCC2(C)OC2C1 (stereo not drawn) [limonene oxide] | enhanced | 2.8 |  | 
C=C(C)[C@H]1CC=C(C)CC1 [limonene, reference compound] |  | 0.0 |  | 
CC1(C)C2CC3OC3(C)C1C2 (stereo not drawn) [α-pinene oxide] | enhanced | 3.3 |  | 
CC1=CCC2CC1C2(C)C (stereo not drawn) [α-pinene, reference compound] |  | 0.6 |  | 
CC1=CCC(C(C)(C)O)CC1 (stereo not drawn) [α-terpineol] | enhanced | 2.0 |  | 
C=C1CC[C@H]2O[C@]2(C)CC[C@@H]2[C@@H]1CC2(C)C [β-caryophyllene oxide] | enhanced | 3.6 | 1.5 | 2.6
C=C1CC/C=C(\C)CC[C@@H]2[C@@H]1CC2(C)C [β-caryophyllene, reference compound] |  | 0.1 | 0.0 | 0.0
